Test results as given in patent US9796700B2 (Celgene CAR LLC, priority 2013, dated 2017).

target: Erk1 (Homo sapiens (Human), UniProt P27361); experiment: Protein Mass Modification Assay (intact protein MALDI); type: binding
Procedure, shortened: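 Percent covalent modification comes from the intact-protein MALDI centroid mass shift, treated versus control, divided by compound MW. Before analysis, human Erk1 was exposed to compound at 10-fold excess over protein for 60 min at room temperature.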

Sequence of Erk1 (P27361 whole entry, looked up): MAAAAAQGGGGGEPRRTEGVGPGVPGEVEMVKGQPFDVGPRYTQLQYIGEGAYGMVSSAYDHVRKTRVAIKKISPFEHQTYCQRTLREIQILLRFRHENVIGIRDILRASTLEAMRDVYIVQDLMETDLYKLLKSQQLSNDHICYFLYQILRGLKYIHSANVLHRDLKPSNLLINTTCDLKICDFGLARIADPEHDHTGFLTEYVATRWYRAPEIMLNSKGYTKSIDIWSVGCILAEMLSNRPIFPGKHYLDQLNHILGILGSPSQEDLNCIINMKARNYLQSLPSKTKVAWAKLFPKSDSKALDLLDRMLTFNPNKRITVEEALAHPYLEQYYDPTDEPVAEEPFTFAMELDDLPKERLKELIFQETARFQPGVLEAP

SMILES | ERK1 Mass Mod (%)
C=CC(=O)Nc1ccccc1Nc1nc(N[C@H]2CCCN(C(=O)C(C)=O)C2)ncc1C(F)(F)F [Compound I-49, (S)—N-(2-((2-((1-(2-Oxopropanoyl)piperidin-3-yl)amino)-5-(trifluoromethyl)pyrimidin-4-yl)amino)phenyl)acrylamide] | E (provided a mass modification of ≧70%)
C=CC(=O)N[C@@H]1CCCC[C@H]1Nc1nc(Nc2cc(C(=O)NOC)ccc2C)ncc1Cl (racemic) [Compound I-188, Rac-trans-3-((4-((2-acrylamidocyclohexyl)amino)-5-chloropyrimidin-2-yl)amino)-N-methoxy-4-methylbenzamide] | F (provided a mass modification of 31-69%)
C=CC(=O)Nc1cc(C)ccc1Nc1nc(Nc2cc(P(C)(C)=O)ncc2C)ncc1C(F)(F)F [Compound I-343, N-(2-((2-((2-(dimethylphosphoryl)-5-methylpyridin-4-yl)amino)-5-(trifluoromethyl)pyrimidin-4-yl)amino)-5-methylphenyl)acrylamide] | F (provided a mass modification of 31-69%)
C=CC(=O)Nc1ccccc1Nc1nc(Nc2cc(C(=O)NOCCO)ccc2C#N)ncc1C(F)(F)F [Compound I-75, 3-((4-((2-Acrylamidophenyl)amino)-5-(trifluoromethyl)pyrimidin-2-yl)amino)-4-cyano-N-(2-hydroxyethoxy)benzamide] | E (provided a mass modification of ≧70%)
C=CC(=O)Nc1ccccc1Nc1nc(N[C@@H]2CCN(C(C)=O)C2)ncc1C(F)(F)F [Compound I-60, (R)—N-(2-((2-((1-Acetylpyrrolidin-3-yl)amino)-5-(trifluoromethyl)pyrimidin-4-yl)amino)phenyl)acrylamide] | E (provided a mass modification of ≧70%)
C=CC(=O)N[C@H]1CCCC[C@@H]1Nc1nc(N[C@H]2CCCN(C(=O)CO)C2)ncc1Cl (racemic) [Compound I-141, Rac-N-(2-((5-chloro-2-(((R)-1-(2-hydroxyacetyl)piperidin-3-yl)amino)pyrimidin-4-yl)amino)-trans-cyclohexyl)acrylamide] | E (provided a mass modification of ≧70%)
C=CC(=O)Nc1ccccc1Nc1nc(N[C@@H]2CCC[C@H](C(=O)NOC)C2)ncc1C(F)(F)F (racemic) [Compound I-3, Rac-cis-3-((4-((2-acrylamidophenyl)amino)-5-(trifluoromethyl)pyrimidin-2-yl)amino)-N-methoxycyclohexanecarboxamide] | E (provided a mass modification of ≧70%)
C=CC(=O)Nc1cc(C)ccc1Nc1nc(Nc2cc(OC)nc(N3CCN(C(C)=O)CC3)c2)ncc1C(F)(F)F [Compound I-93, N-(2-((2-((2-(4-Acetylpiperazin-1-yl)-6-methoxypyridin-4-yl)amino)-5-(trifluoromethyl)pyrimidin-4-yl)amino)-5-methylphenyl)acrylamide] | E (key: E: provided a mass modification of ≧70%; F: provided a mass modification of 31-69%; G: proived a mass modification ≦30%)
C=CC(=O)Nc1ccccc1Nc1nc(Nc2ccc3c(c2OC)CCCC(=O)N3CCCN)ncc1Cl [Compound I-148, N-(2-((2-((1-(3-aminopropyl)-6-methoxy-2-oxo-2,3,4,5-tetrahydro-1H-benzo[b]azepin-7-yl)amino)-5-chloropyrimidin-4-yl)amino)phenyl)acrylamide] | E (provided a mass modification of ≧70%)
C=CC(=O)Nc1ccccc1Nc1nc(Nc2cc(C(=O)NC)c(F)cc2C)ncc1C(F)(F)F [Compound I-80, 5-((4-((2-Acrylamidophenyl)amino)-5-(trifluoromethyl)pyrimidin-2-yl)amino)-2-fluoro-N,4-dimethylbenzamide] | E (provided a mass modification of ≧70%)
C=CC(=O)Nc1ccccc1Nc1nc(Nc2ccc3c(c2OC)CCCC(=O)N3CCCNC(=O)OC(C)(C)C)ncc1Cl [Compound I-147, tert-butyl (3-(7-((4-((2-acrylamidophenyl)amino)-5-chloropyrimidin-2-yl)amino)-6-methoxy-2-oxo-2,3,4,5-tetrahydro-1H-benzo[b]azepin-1-yl)propyl)carbamate] | E (provided a mass modification of ≧70%)
C=CC(=O)Nc1ccccc1Nc1nc(N[C@H]2CCCN(C(=O)C=O)C2)ncc1C(F)(F)F [Compound I-52, (S)—N-(2-((2-((1-(2-Oxoacetyl)piperidin-3-yl)amino)-5-(trifluoromethyl)pyrimidin-4-yl)amino)phenyl)acrylamide] | E (provided a mass modification of ≧70%)
O=C(CCl)Nc1ccccc1Nc1nc(N[C@H]2CCCN(C(=O)CCl)C2)ncc1C(F)(F)F [Compound I-31, (S)-2-Chloro-N-(2-((2-((1-(2-chloroacetyl)piperidin-3-yl)amino)-5-(trifluoromethyl)pyrimidin-4-yl)amino)phenyl)acetamide] | G (proived a mass modification ≦30%)

Second part, the compound after the results:

ERK1 Mass Mod (%) | SMILES
E (provided a mass modification of ≧70%) | C=CC(=O)Nc1ccccc1Nc1nc(Nc2cc(C(=O)NC)c(F)cc2C)ncc1Cl [Compound I-231, 5-((4-((2-acrylamidophenyl)amino)-5-chloropyrimidin-2-yl)amino)-2-fluoro-N,4-dimethylbenzamide]
E (provided a mass modification of ≧70%) | C=CC(=O)Nc1ccccc1Nc1nc(Nc2ccc(N3CCC[C@H]3C(N)=O)cc2C#N)ncc1Cl [Compound I-177, (S)-1-(4-((4-((2-acrylamidophenyl)amino)-5-chloropyrimidin-2-yl)amino)-3-cyanophenyl)pyrrolidine-2-carboxamide]
E (provided a mass modification of ≧70%) | C=CC(=O)Nc1cc(C)ccc1Nc1nc(Nc2cc(OCC)ncc2C)ncc1C(F)(F)F [Compound I-358, N-(2-((2-((2-ethoxy-5-methylpyridin-4-yl)amino)-5-(trifluoromethyl)pyrimidin-4-yl)amino)-5-methylphenyl)acrylamide]
E (provided a mass modification of ≧70%) | C=CC(=O)Nc1cc(OC)ccc1Nc1nc(Nc2ccc(N(CC)C(C)=O)cc2OC)ncc1Cl [Compound I-175, N-(2-((5-chloro-2-((4-(N-ethylacetamido)-2-methoxyphenyl)amino)pyrimidin-4-yl)amino)-5-methoxyphenyl)acrylamide]
E (provided a mass modification of ≧70%) | C=CC(=O)Nc1ccccc1Nc1nc(Nc2cc(OC)cc(OC)c2)ncc1C(F)(F)F [Compound I-338, N-(2-((2-((3,5-dimethoxyphenyl)amino)-5-(trifluoromethyl)pyrimidin-4-yl)amino)phenyl)acrylamide]
E (provided a mass modification of ≧70%) | C=CC(=O)Nc1cc(C)ccc1Nc1nc(Nc2cc(OC)nc(N3CCN(C)CC3)c2)ncc1C(F)(F)F [Compound I-325, N-(2-((2-((2-methoxy-6-(4-methylpiperazin-1-yl)pyridin-4-yl)amino)-5-(trifluoromethyl)pyrimidin-4-yl)amino)-5-methylphenyl)acrylamide]
E (provided a mass modification of ≧70%) | C=CC(=O)Nc1ccccc1Nc1nc(Nc2ccc(N(CCN)C(C)=O)cc2OC)ncc1Cl [Compound I-168, N-(2-((2-((4-(N-(2-aminoethyl)acetamido)-2-methoxyphenyl)amino)-5-chloropyrimidin-4-yl)amino)phenyl)acrylamide]
E (provided a mass modification of ≧70%) | C=CC(=O)Nc1ccccc1Nc1nc(Nc2ccc(N(CCCNC(=O)OC(C)(C)C)C(C)=O)cc2OC)ncc1Cl [Compound I-173]
G (proived a mass modification ≦30%) | C=CC(=O)Nc1ccccc1Nc1nc(Nc2ccc(N3CCOCC3)cc2OC)ncc1C(C)=O [Compound I-273, N-(2-(5-acetyl-2-(2-methoxy-4-morpholinophenylamino)pyrimidin-4-ylamino)phenyl) acrylamide]
E (provided a mass modification of ≧70%) | C=CC(=O)Nc1c(Nc2nc(Nc3cc(OC)ncc3C)ncc2C(F)(F)F)ccc(C)c1F [Compound I-367, N-(2-fluoro-6-((2-((2-methoxy-5-methylpyridin-4-yl)amino)-5-(trifluoromethyl)pyrimidin-4-yl)amino)-3-methylphenyl)acrylamide]
E (provided a mass modification of ≧70%) | C=CC(=O)Nc1cc(C)c(F)cc1Nc1nc(Nc2cc(OC)ncc2C)ncc1C(F)(F)F [Compound I-366, N-(4-fluoro-2-((2-((2-methoxy-5-methylpyridin-4-yl)amino)-5-(trifluoromethyl)pyrimidin-4-yl)amino)-5-methylphenyl)acrylamide]
E (provided a mass modification of ≧70%) | C=CC(=O)Nc1cc(OC)ccc1Nc1nc(Nc2ccc(N3CCCN(C(=O)OC(C)(C)C)CC3)cc2C#N)ncc1Cl [Compound I-156, tert-butyl 4-(4-((4-((2-acrylamido-4-methoxyphenyl)amino)-5-chloropyrimidin-2-yl)amino)-3-cyanophenyl)-1,4-diazepane-1-carboxylate]
E (provided a mass modification of ≧70%) | C=CC(=O)Nc1cc(C)ccc1Nc1nc(Nc2nc(OC)ncc2F)ncc1C(F)(F)F [Compound I-357, N-(2-((2-((5-fluoro-2-methoxypyrimidin-4-yl)amino)-5-(trifluoromethyl)pyrimidin-4-yl)amino)-5-methylphenyl)acrylamide]
E (provided a mass modification of ≧70%) | C=CC(=O)Nc1cc(C)ccc1Nc1nc(Nc2cc(C(N)=O)ccn2)ncc1Cl [Compound I-238, 2-((4-((2-acrylamido-4-methylphenyl)amino)-5-chloropyrimidin-2-yl)amino)isonicotinamide]
E (provided a mass modification of ≧70%) | C=CC(=O)Nc1ccccc1Nc1nc(Nc2ccc(N3CCN(C(=O)CCCC(=O)NCCCOCCOCCOCCCNC(=O)CCCC[C@@H]4SC[C@@H]5NC(=O)N[C@@H]54)CC3)cc2OC(F)F)ncc1Cl [Compound I-306, 5-(4-(4-((4-((2-acrylamidophenyl)amino)-5-chloropyrimidin-2-yl)amino)-3-(difluoromethoxy)phenyl)piperazin-1-yl)-5-oxo-N-(15-oxo-19-((3aS,4S,6aR)-2-oxohexahydro-1H-thieno[3,4-d]imidazol-4-yl)-4,7,10-trioxa-14-azanonadecyl)pentanamide]
